Consider seven compounds from paper PMC5347165, “Killing of Staphylococcus aureus and Salmonella enteritidis and neutralization of lipopolysaccharide by 17-residue bovine lactoferricins: improved activity of Trp/Ala-containing molecules” (Scientific Reports, 2017).

Data set [1] concerns Streptococcus suis CVCC606. In kind it is cell-based. The settings on record: 18 h. As for the experimental part:
(§1) The MIC values of LfcinB17-33 derivatives against bacteria were determined by the microtiter broth dilution method. Briefly, 10 μl of serially diluted aliquots of peptides were added to each well of 96-well microtiter plates, followed by the addition of 90 μl exponential phase bacteria (10^5 CFU/ml) and incubated for 16‒18 h at 37 °C.

Data set [2] concerns Staphylococcus aureus ATCC43300. It is filed as cell-based. The following applies: ATCC43300, 18 h. On the procedure:
as §1

For data set [3], the system named is Bacillus subtilis ATCC6633. It is filed as cell-based. The following applies: ATCC6633, 18 h. As for the experimental part:
as §1

Data set [4] relates to Salmonella typhimurium ATCC14028. It is filed as cell-based. The settings on record: ATCC14028, 18 h. On the procedure: as §1
A further data set has as its system S. choleraesuis CVCC503. It is filed as cell-based. The settings on record: CVCC503, 18 h. As for the experimental part:
as §1

The subject of another data set is Escherichia coli CVCC195. In kind it is cell-based. The following applies: CVCC195, 18 h. As for the experimental part:
as §1

Data set [5] deals with Pseudomonas aeruginosa CICC10419. It is filed as cell-based. The settings on record: CICC10419, 18 h. As for the experimental part: as §1
The test system of the next data set is S. pullorum CVCC1802. In kind it is cell-based. The settings on record: CVCC1802, 18 h. On the procedure:
as §1

Data set [6] relates to Enterococcus faecium CMCC1.2136. In kind it is cell-based. The following applies: CMCC1.2136, 18 h. On the procedure: as §1
In a further data set the test system is S. pullorum CVCC1789. It is filed as cell-based. The settings on record: CVCC1789, 18 h. On the procedure: as §1
The subject of another data set is S. enteritidis CVCC3377. It is filed as cell-based, Salmonella enteritidis. The settings on record: CVCC3377, 18 h. As for the experimental part: as §1
The subject of the next data set is P. aeruginosa CICC21630. In kind it is cell-based, Pseudomonas aeruginosa. The settings on record: CICC21630, 18 h. On the procedure: as §1
The subject of the next data set is E. coli CVCC1515. In kind it is cell-based, Escherichia coli. The following applies: CVCC1515, 18 h. On the procedure: as §1
The test system of data set [7] is E. coli CICC21530 (serotype O157:H7). In kind it is cell-based, Escherichia coli. The following applies: microtiter broth dilution, 10^5 CFU/ml, 16‒18 h at 37 °C; representative of three independent experiments. On the procedure:
as §1
(In general: In broth dilution the organism is exposed to a series of concentrations in liquid medium.)

For data set [8], the system named is S. aureus ATCC25923. In kind it is cell-based, Staphylococcus aureus. The following applies: ATCC25923, 18 h. As for the experimental part: as §1
For data set [9], the system named is S. aureus ATCC25923. It is filed as in vivo. As for the experimental part:
The thigh infection protocol was performed as previously described. Female BALB/c mice (6 weeks old, 22 ± 2 g) were rendered neutropenic (neutrophils, 100/mm^3) by intraperitoneal injection with 150 and 100 mg cyclophosphamide per kg of body weight for 4 d and 1 d before infection, respectively. Mice were inoculated with 100 μl of S. aureus ATCC25923 cells (1.0 × 10^7 CFU/ml) and given a single dose (0.2 ml) of Lfcin4 or Lfcin5 (10 or 15 mg/kg of body weight) or vancomycin (10 mg/kg of body weight) by tail vein injection at 2 h post-infection. Mice were humanely euthanized by cervical dislocation at 5 and 10 h after treatment. Thighs were removed and homogenized in sterile PBS for a CFU assay for S. aureus ATCC25923.

For the next data set, the system named is mouse erythrocytes. The settings on record: 256 μg/ml; cited from earlier work.
Another data set has as its system LPS from E. coli O111:B4. As to the kind of experiment: LPS-induced endotoxemia model, survival. In kind it is in vivo, mouse (C57BL/6). The settings on record: 15 mg/kg i.p. at 0.5, 8 and 24 h after LPS 30 mg/kg i.p.; followed 7 d; groups of eight mice. As for the experimental part: Male C57BL/6 mice (8 weeks old, 22 ± 2 g) were intraperitoneally injected with 30 mg/kg of LPS (0.2 ml) from E. coli O111:B4 cells as previously described. Mice were intraperitoneally injected with Lfcin4 or Lfcin5 (10, 15 or 20 mg/kg of body weight in 0.2 ml) or colistin (15 mg/kg of body weight in 0.2 ml) at 0.5, 8 and 24 h after inoculation with LPS, respectively. Mice injected with LPS or saline only served as positive or mock-treated controls, respectively. Survival was recorded every 12 h and followed for up to 7 d.

In brackets after ≈: the same amount, converted by molar mass. Read-outs that look alike come from different tables or passages of the source. Ends that are not written are not given here. Bounds are passed on as bounds.

In general, MIC refers to the least concentration at which growth counts as inhibited. A lower MIC goes with greater potency. Consider `CSCC[C@H](NC(=O)[C@H](CCCNC(=N)N)NC(=O)[C@H](Cc1c[nH]c2ccccc12)NC(=O)[C@H](CCC(N)=O)NC(=O)[C@H](Cc1c[nH]c2ccccc12)NC(=O)[C@H](CCCNC(=N)N)NC(=O)[C@H](CCCNC(=N)N)NC(=O)[C@H](CS)NC(=O)[C@H](CCCCN)NC(=O)[C@@H](N)Cc1ccccc1)C(=O)N[C@@H](CCCCN)C(=O)N[C@@H](CCCCN)C(=O)N[C@@H](CC(C)C)C(=O)NCC(=O)N[C@@H](C)C(=O)N1CCC[C@H]1C(=O)N[C@@H](CO)C(=O)O` [Lfcin2], for which the minimal inhibitory concentration (MIC) in data set [1] was above 59 µM; in [2], above 59 µM; in [3] it was 29 µM (≈ 63.2 µg/mL); in data set [4], 29 µM (≈ 63.2 µg/mL); against S. choleraesuis CVCC503, 59 µM (≈ 129 µg/mL); in the data set with Escherichia coli CVCC195, 15 µM (≈ 32.7 µg/mL). Besides, the minimum inhibitory concentration (MIC) was above 59 µM in [5]; above 59 µM in the data set with S. pullorum CVCC1802; 15 µM (≈ 32.7 µg/mL) in data set [6]; above 59 µM against S. pullorum CVCC1789; 15 µM (≈ 32.7 µg/mL) in the data set on S. enteritidis CVCC3377; above 59 µM in the data set with P. aeruginosa CICC21630. Also, the values for the MIC (in the data set on E. coli CVCC1515; in [7]; with S. aureus ATCC25923 [8]) were above 59 µM, 59 µM (≈ 129 µg/mL) and 0.92 µM (≈ 2 µg/mL), respectively.
With `CN[C@H](CC(C)C)C(=O)N[C@H]1C(=O)N[C@@H](CC(N)=O)C(=O)N[C@H]2C(=O)N[C@H]3C(=O)N[C@H](C(=O)N[C@H](C(=O)O)c4cc(O)cc(O)c4-c4cc3ccc4O)[C@H](O)c3ccc(c(Cl)c3)Oc3cc2cc(c3O[C@@H]2O[C@H](CO)[C@@H](O)[C@H](O)[C@H]2O[C@H]2C[C@](C)(N)[C@H](O)[C@H](C)O2)Oc2ccc(cc2Cl)[C@H]1O` [vancomycin, reference compound], in the data set with S. aureus ATCC25923 [9] (10 mg/kg single i.v. dose (Fig. 6B), time not restated, sentence follows the 5 h result), the “decrease of bacterial count in thigh” value amounted to 0.1 log10 CFU/g. Also, the “S. aureus cells killed” value with S. aureus ATCC25923 [9] (10 h post-treatment, 10 mg/kg single i.v. dose) is −1.2%.
Turning to FKAFRWAWRWKKLAAPS [Lfcin5], the minimum inhibitory concentration (MIC) in data set [1] was 60 µM; in data set [2] it was 30 µM; in [3], 15 µM; in data set [4] it was above 30 µM; in the data set with S. choleraesuis CVCC503, 60 µM; in the data set on Escherichia coli CVCC195 it was 30 µM. The minimum inhibitory concentration (MIC) in [5] was above 60 µM; against S. pullorum CVCC1802, above 60 µM; in [6] it was 7.4 µM; with S. pullorum CVCC1789 it was above 60 µM; against S. enteritidis CVCC3377 it was 1.9 µM; in the data set on P. aeruginosa CICC21630 it was above 60 µM. Further, the MIC stood at 60 µM against E. coli CVCC1515, 30 µM in data set [7] and 0.93 µM against S. aureus ATCC25923 [8]. Also, in the data set on S. aureus ATCC25923 [9] (ATCC25923, mouse, in vivo, iv, 15 mg/kg, 10 h), the “S. aureus cells killed” value was “approximately 76.6%”.
With FKAFRWAWRMKKLAAPS [Lfcin3], the minimum inhibitory concentration (MIC) was 61 µM in data set [1]; above 61 µM in data set [2]; 15 µM in [3]; 61 µM in data set [4]; 61 µM in the data set on S. choleraesuis CVCC503; 31 µM in the data set on Escherichia coli CVCC195. The MIC was above 61 µM in data set [5]; above 61 µM against S. pullorum CVCC1802; 15 µM in [6]; above 61 µM against S. pullorum CVCC1789; 1.9 µM with S. enteritidis CVCC3377; above 61 µM with P. aeruginosa CICC21630. Also, the MIC is 31 µM against E. coli CVCC1515, 31 µM in [7] and 0.95 µM with S. aureus ATCC25923 [8].
Turning to `CSCC[C@H](NC(=O)[C@H](CCCNC(=N)N)NC(=O)[C@H](Cc1c[nH]c2ccccc12)NC(=O)[C@H](CCC(N)=O)NC(=O)[C@H](Cc1c[nH]c2ccccc12)NC(=O)[C@H](CCCNC(=N)N)NC(=O)[C@H](CCCNC(=N)N)NC(=O)[C@H](CS)NC(=O)[C@H](CCCCN)NC(=O)[C@@H](N)Cc1ccccc1)C(=O)N[C@@H](CCCCN)C(=O)N[C@@H](CCCCN)C(=O)N[C@@H](CC(C)C)C(=O)NCC(=O)N[C@@H](C)C(=O)O` [Lfcin1], the hemolysis entry in the data set with mouse erythrocytes is reported as “approximately 7.5%”.
Consider colistin [reference compound], for which the survival rate with LPS from E. coli O111:B4 turned out to be 75%.
On to FKCWRWQWRWKKLGAPS [Lfcin6], for which the MIC in data set [1] is above 57 µM; in [2] it was above 57 µM; in [3], 57 µM; in data set [4], above 57 µM; in the data set on S. choleraesuis CVCC503, above 57 µM; in the data set on Escherichia coli CVCC195, 57 µM. Also, the minimal inhibitory concentration (MIC) was above 57 µM in data set [5]; above 57 µM in the data set with S. pullorum CVCC1802; 14 µM in [6]; above 57 µM against S. pullorum CVCC1789; 7.1 µM against S. enteritidis CVCC3377; above 57 µM against P. aeruginosa CICC21630. The minimal inhibitory concentration (MIC) in the data set on E. coli CVCC1515 turned out to be 57 µM; in data set [7], 57 µM; in the data set on S. aureus ATCC25923 [8] it was 7.1 µM.
